Experimental findings from patent US12365658B2, “Benzothia(di)azepine compounds and their use as bile acid modulators” (Albireo AB, priority 2021, dated 2025) are described below.

For the data set, the system named is Caco-2 cells. Kind of data set: Bidirectional permeability assay (Caco-2 cells). The format is in vitro ADME. Particulars: 10 μM in FaSSIF buffer, 120 minutes; for Permeability (Caco-2) Papp A2B: absorptive direction (A2B); for Permeability (Caco-2) Papp B2A: secretory direction (B2A). The method, then:
Bidirectional Permeability Assay (Caco-2 Cells)
Caco-2 cells (Evotec) were seeded at a density of 70,000 cells/well in Millicell® 24-well cell culture insert plates and maintained in an incubator (37° C., 5% CO2, 95% RH) for 21 days with media change on alternate days.
Stock solutions (10 mM) of the test compounds, atenolol (low permeability marker), propranolol (high permeability marker) and digoxin (substrate for P-gp transport pathway) were prepared in dimethylsulfoxide (DMSO). An intermediate stock solution (1 mM) was prepared by diluting 10 μL of 10 mM master stock solution with 90 μL of neat DMSO. A working stock solution (10 μM) was prepared by diluting 50 μL of 1 mM with 4950 μL of FaSSIF buffer. Post addition of compounds to the FaSSIF, samples were subjected to sonication for 2 hours, and centrifuged at 4000 RPM for 30 minutes at 37° C. The 4 mL of resultant supernatant was directly used in the assay. The final DMSO concentration in the transport experiments was 1%.
On the day of assay, Caco-2 monolayers were washed twice with transport buffer (HBSS, pH 7.4) and pre-incubated for 30 min (37° C., 5% CO2, 95% RH) in an incubator. The electrical resistance of the monolayers was measured with a Millicell®-ERS system. Monolayers with trans-epithelial electrical resistance (TEER) values greater than 350 ohm·cm^2 were selected for the assay.
The assay was conducted in absorptive direction (A2B) and secretory (B2A) directions. Transport experiments were initiated by addition of transport assay buffer (FaSSIF buffer prepared in HBSS) consisting of compounds to the donor compartment (apical chamber A-B; basolateral chamber B-A) in duplicate (n=2) wells. Drug free HBSS buffer (pH 7.4) containing 1% bovine serum albumin (BSA) was introduced to the receiver (A-B-basolateral; B-A-Apical) compartments. The volumes of apical and basolateral compartments were 0.4 and 0.8 mL, respectively. After adding dosing solution, plates were incubated in an incubator for 120 minutes at 37° C. After 120 minutes, donor and receiver samples were collected and matrix matched (1:1, 30 μL study sample+30 μL blank buffer) with the opposite buffer. Dosing samples matrix matched (1:1, 30 μL study sample+30 μL blank buffer) with the opposite buffer. Samples were processed by adding acetonitrile containing internal standard (60 μL study sample+200 μL acetonitrile containing internal standard-Tolbutamide, 500 ng/mL). Samples were vortexed and centrifuged at 4000 rpm for 10 minutes. The obtained supernatant (100 μL) was diluted with 100 μL of water and transferred to fresh 96 well plates. The concentration of compounds in the samples was analyzed by liquid chromatography tandem mass spectrometry (LC-MS/MS) method using discovery grade bio-analytical method, as applicable.
The mean apparent permeability (Papp, ×10^−6 cm/sec) of the test compounds, atenolol, propranolol and digoxin were calculated as follows:
where dq/dt=rate of transport (rate of transport of compound in the receiver compartment), C0=initial concentration in the donor compartment, A=surface area of the effective filter membrane.
In general terms: Passage across Caco-2 layers is used to estimate intestinal permeability.

Turning to `CCCCC1CN(c2ccccc2)c2cc(SC)c(OCC(C)(OC)C(=O)O)cc2S(=O)(=O)N1C` (single isomer, unassigned) [24, diastereomer 1], the “Permeability (Caco-2) Papp A2B” value was found to be 8.6 ×10⁻⁶ cm/s and the “Permeability (Caco-2) Papp B2A” value stood at 15.9 ×10⁻⁶ cm/s.
For `CCCCC1CN(c2ccccc2)c2cc(SC)c(OCC(C)(OC)C(=O)O)cc2S(=O)(=O)N1C` (single isomer, unassigned) [24, diastereomer 2] the same measures were 16.3 ×10⁻⁶ cm/s and 24 ×10⁻⁶ cm/s.
